Read-outs that look alike come from different tables or passages of the source.
Molecular target: GST-Bcl-2 (Homo sapiens (Human), UniProt P10415)
Test: Time Resolved-Fluorescence Resonance Energy Transfer (TR-FRET) Bcl-2 binding assay
Outline: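 Ki values derived from TR-FRET displacement of F-Bak peptide from GST-Bcl-2, detected with Tb-labelled anti-GST antibody (ex 340, em 520/495 nm). Compound dilution series started at 50 μM (2× starting concentration); room-temperature incubation 3 hours.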

[1] = GST-Bcl-2 1 nM, F-Bak peptide probe 100 nM, Tb-anti-GST antibody 1 nM, Ki by Wang's equation

Chain of GST-Bcl-2 (P10415 whole entry): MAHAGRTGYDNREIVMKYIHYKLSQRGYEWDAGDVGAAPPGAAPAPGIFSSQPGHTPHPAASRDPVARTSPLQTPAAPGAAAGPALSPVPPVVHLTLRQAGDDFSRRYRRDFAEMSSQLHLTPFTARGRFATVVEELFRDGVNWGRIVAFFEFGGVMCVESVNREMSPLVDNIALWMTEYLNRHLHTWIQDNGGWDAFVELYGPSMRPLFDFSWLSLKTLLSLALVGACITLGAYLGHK

| SMILES | Ki [1] [nM] | Ki [nM] |
| --- | --- | --- |
| CC1(C)CCC(CN2CCN(c3ccc(C(=O)NS(=O)(=O)c4ccc(NCC5CCOCC5)c([N+](=O)[O-])c4)c(Oc4ccc5c(c4)CC(=O)N5)c3)CC2)=C(c2ccc(Cl)cc2)C1 [Example 267, 4-(4-{[2-(4-chlorophenyl)-4,4-dimethylcyclohex-1-en-1-yl]methyl}piperazin-1-yl)-N-({3-nitro-4-[(tetrahydro-2H-pyran-4-ylmethyl)amino]phenyl}sulfonyl)-2-[(2-oxo-2,3-dihydro-1H-indol-5-yl)oxy]benzamide] | 28.4 | – |
| Cc1cc2cc(Oc3cc(N4CCN(CC5=C(c6ccc(Cl)cc6)CC(C)(C)CC5)CC4)ccc3C(=O)NS(=O)(=O)c3ccc(NCCCN4CCOCC4)c([N+](=O)[O-])c3)ccc2[nH]1 [Example 4, 4-(4-((2-(4-chlorophenyl)-4,4-dimethylcyclohex-1-en-1-yl)methyl)piperazin-1-yl)-2-((2-methyl-1H-indol-5-yl)oxy)-N-((4-((3-morpholin-4-ylpropyl)amino)-3-nitrophenyl)sulfonyl)benzamide] | 2.47 | – |
| CC1(C)CCC(CN2CCN(c3ccc(C(=O)NS(=O)(=O)c4ccc(N[C@H]5CC[C@H](N6CCOCC6)CC5)c([N+](=O)[O-])c4)c(Oc4cc5cc[nH]c5cc4Cl)c3)CC2)=C(c2ccc(Cl)cc2)C1 [Example 293, Trans-2-[(6-chloro-1H-indol-5-yl)oxy]-4-(4-{[2-(4-chlorophenyl)-4,4-dimethylcyclohex-1-en-1-yl]methyl}piperazin-1-yl)-N-({4-[(4-morpholin-4-ylcyclohexyl)amino]-3-nitrophenyl}sulfonyl)benzamide] | – | 0.233 |
| Cc1cc(Oc2cc(N3CCN(CC4=C(c5ccc(Cl)cc5)CC(C)(C)CC4)CC3)ccc2C(=O)NS(=O)(=O)c2ccc(NCC3CCOCC3)c([N+](=O)[O-])c2)cnc1N [Example 362, 2-[(6-amino-5-methylpyridin-3-yl)oxy]-4-(4-{[2-(4-chlorophenyl)-4,4-dimethylcyclohex-1-en-1-yl]methyl}piperazin-1-yl)-N-({3-nitro-4-[(tetrahydro-2H-pyran-4-ylmethyl)amino]phenyl}sulfonyl)benzamide] | 0.033 | – |
| CN1CCN(Nc2ccc(S(=O)(=O)NC(=O)c3ccc(N4CCN(CC5=C(c6ccc(Cl)cc6)CC(C)(C)CC5)CC4)cc3Oc3ccccc3Cl)cc2[N+](=O)[O-])CC1 [Example 184, 2-(2-chlorophenoxy)-4-(4-{[2-(4-chlorophenyl)-4,4-dimethylcyclohex-1-en-1-yl]methyl}piperazin-1-yl)-N-({4-[(4-methylpiperazin-1-yl)amino]-3-nitrophenyl}sulfonyl)benzamide] | 0.155 | – |
| O=C(NS(=O)(=O)c1ccc(NCC2CCOCC2)c([N+](=O)[O-])c1)c1ccc(N2CCN(Cc3ccccc3-c3ccc(Cl)cc3)CC2)cc1Oc1ccc2[nH]cc(CCCN3CCOCC3)c2c1 [Example 74, 4-(4-((4′-chloro-1,1′-biphenyl-2-yl)methyl)piperazin-1-yl)-2-((3-(3-morpholin-4-ylpropyl)-1H-indol-5-yl)oxy)-N-((3-nitro-4-((tetrahydro-2H-pyran-4-ylmethyl)amino)phenyl)sulfonyl)benzamide] | 189 | – |
| CN1CCC(Nc2ccc(S(=O)(=O)NC(=O)c3ccc(N4CCN(CC5=C(c6ccc(Cl)cc6)CC(C)(C)CC5)CC4)cc3Oc3cccc(F)c3F)cc2[N+](=O)[O-])CC1 [Example 45, 4-(4-((2-(4-chlorophenyl)-4,4-dimethylcyclohex-1-en-1-yl)methyl)piperazin-1-yl)-2-(2,3-difluorophenoxy)-N-((4-((1-methylpiperidin-4-yl)amino)-3-nitrophenyl)sulfonyl)benzamide] | 0.047 | – |
| Cc1cc2cc(Oc3cc(N4CCN(CC5=C(c6ccc(Cl)cc6)CC(C)(C)CC5)CC4)ccc3C(=O)NS(=O)(=O)c3ccc(NC4CCN(C)CC4)c([N+](=O)[O-])c3)ccc2[nH]1 [Example 3, 4-(4-((2-(4-chlorophenyl)-4,4-dimethylcyclohex-1-en-1-yl)methyl)piperazin-1-yl)-2-((2-methyl-1H-indol-5-yl)oxy)-N-((4-((1-methylpiperidin-4-yl)amino)-3-nitrophenyl)sulfonyl)benzamide] | 0.827 | – |
| CN1CCC(Nc2ccc(S(=O)(=O)NC(=O)c3ccc(N4CCN(CC5=C(c6ccc(Cl)cc6)CC(C)(C)CC5)CC4)cc3Oc3ccc4nc(N)sc4c3)cc2[N+](=O)[O-])CC1 [Example 229, 2-[(2-amino-1,3-benzothiazol-6-yl)oxy]-4-(4-{[2-(4-chlorophenyl)-4,4-dimethylcyclohex-1-en-1-yl]methyl}piperazin-1-yl)-N-({4-[(1-methylpiperidin-4-yl)amino]-3-nitrophenyl}sulfonyl)benzamide] | 1.08 | – |
| CN(C)Cc1ccc(Oc2cc(N3CCN(Cc4ccccc4-c4ccc(Cl)cc4)CC3)ccc2C(=O)NS(=O)(=O)c2ccc(NCC3CCOCC3)c([N+](=O)[O-])c2)cc1 [Example 75, 4-(4-((4′-chloro-1,1′-biphenyl-2-yl)methyl)piperazin-1-yl)-2-(4-((dimethylamino)methyl)phenoxy)-N-((3-nitro-4-((tetrahydro-2H-pyran-4-ylmethyl)amino)phenyl)sulfonyl)benzamide] | 76.8 | – |
| CC1(C)CCC(CN2CCN(c3ccc(C(=O)NS(=O)(=O)c4ccc(NCC5CCOCC5)c([N+](=O)[O-])c4)c(Oc4cnc5[nH]ccc5c4Cl)c3)CC2)=C(c2ccc(Cl)cc2)C1 [Example 384, 4-(4-{[2-(4-chlorophenyl)-4,4-dimethylcyclohex-1-en-1-yl]methyl}piperazin-1-yl)-2-[(4-chloro-1H-pyrrolo[2,3-b]pyridin-5-yl)oxy]-N-({3-nitro-4-[(tetrahydro-2H-pyran-4-ylmethyl)amino]phenyl}sulfonyl)benzamide] | 6.23 | – |
| CN1CCC(Nc2ccc(S(=O)(=O)NC(=O)c3ccc(N4CCN(CC5=C(c6ccc(Cl)cc6)CC(C)(C)CC5)CC4)cc3Oc3ccc(N)c(Cl)c3)cc2[N+](=O)[O-])CC1 [Example 40, 2-(4-amino-3-chlorophenoxy)-4-(4-((2-(4-chlorophenyl)-4,4-dimethylcyclohex-1-en-1-yl)methyl)piperazin-1-yl)-N-((4-((1-methylpiperidin-4-yl)amino)-3-nitrophenyl)sulfonyl)benzamide] | 0.019 | – |
| CC1(C)CCC(CN2CCN(c3ccc(C(=O)NS(=O)(=O)c4ccc(OCC5(F)CCOCC5)c([N+](=O)[O-])c4)c(Oc4cc5cc[nH]c5cc4F)c3)CC2)=C(c2ccc(Cl)cc2)C1 [Example 296, 4-(4-{[2-(4-chlorophenyl)-4,4-dimethylcyclohex-1-en-1-yl]methyl}piperazin-1-yl)-2-[(6-fluoro-1H-indol-5-yl)oxy]-N-({4-[(4-fluorotetrahydro-2H-pyran-4-yl)methoxy]-3-nitrophenyl}sulfonyl)benzamide] | < 0.01 | – |
| CC1(C)CCC(CN2CCN(c3ccc(C(=O)NS(=O)(=O)c4cnc(OCC5COCCO5)c(Br)c4)c(Oc4cc5cc[nH]c5cc4F)c3)CC2)=C(c2ccc(Cl)cc2)C1 (stereo not shown) [Example 306, N-{[5-bromo-6-(1,4-dioxan-2-ylmethoxy)pyridin-3-yl]sulfonyl}-4-(4-{[2-(4-chlorophenyl)-4,4-dimethylcyclohex-1-en-1-yl]methyl}piperazin-1-yl)-2-[(6-fluoro-1H-indol-5-yl)oxy]benzamide] | 0.671 | – |
| CN1CCC(Nc2ccc(S(=O)(=O)NC(=O)c3ccc(N4CCN(CC5=C(c6ccc(Cl)cc6)CC(C)(C)CC5)CC4)cc3Oc3ccc(Cl)c(Cl)c3)cc2[N+](=O)[O-])CC1 [Example 164, 4-(4-{[2-(4-chlorophenyl)-4,4-dimethylcyclohex-1-en-1-yl]methyl}piperazin-1-yl)-2-(3,4-dichlorophenoxy)-N-({4-[(1-methylpiperidin-4-yl)amino]-3-nitrophenyl}sulfonyl)benzamide] | 0.056 | – |
| CC1(C)CCC(CN2CCN(c3ccc(C(=O)NS(=O)(=O)c4ccc(NCCCN5CCNC(=O)C5)c([N+](=O)[O-])c4)c(Oc4ccccc4Cl)c3)CC2)=C(c2ccc(Cl)cc2)C1 [Example 254, 2-(2-chlorophenoxy)-4-(4-{[2-(4-chlorophenyl)-4,4-dimethylcyclohex-1-en-1-yl]methyl}piperazin-1-yl)-N-[(3-nitro-4-{[3-(3-oxopiperazin-1-yl)propyl]amino}phenyl)sulfonyl]benzamide] | 0.119 | – |
| CO[C@H]1CC[C@H](CNc2ccc(S(=O)(=O)NC(=O)c3ccc(N4CCN(CC5=C(c6ccc(Cl)cc6)CC(C)(C)CC5)CC4)cc3Oc3cnc(N)c(Br)c3)cc2[N+](=O)[O-])CC1 [Example 367, Trans-2-[(6-amino-5-bromopyridin-3-yl)oxy]-4-(4-{[2-(4-chlorophenyl)-4,4-dimethylcyclohex-1-en-1-yl]methyl}piperazin-1-yl)-N-[(4-{[(4-methoxycyclohexyl)methyl]amino}-3-nitrophenyl)sulfonyl]benzamide] | – | 0.012 |
| CC1(C)CCC(CN2CCN(c3ccc(C(=O)NS(=O)(=O)c4ccc(NC5CCN(C6CCOCC6)CC5)c([N+](=O)[O-])c4)c(Oc4cccc5c4CC(=O)N5)c3)CC2)=C(c2ccc(Cl)cc2)C1 [Example 289, 4-(4-{[2-(4-chlorophenyl)-4,4-dimethylcyclohex-1-en-1-yl]methyl}piperazin-1-yl)-N-({3-nitro-4-[(1-tetrahydro-2H-pyran-4-ylpiperidin-4-yl)amino]phenyl}sulfonyl)-2-[(2-oxo-2,3-dihydro-1H-indol-4-yl)oxy]benzamide] | < 0.01 | – |
| CC1(C)CCC(CN2CCN(c3ccc(C(=O)NS(=O)(=O)c4ccc(NCCN5CCOCC5)c([N+](=O)[O-])c4)c(Oc4ccccc4F)c3)CC2)=C(c2ccc(Cl)cc2)C1 [Example 126, 4-(4-{[2-(4-chlorophenyl)-4,4-dimethylcyclohex-1-en-1-yl]methyl}piperazin-1-yl)-2-(2-fluorophenoxy)-N-({4-[(2-morpholin-4-ylethyl)amino]-3-nitrophenyl}sulfonyl)benzamide] | 0.068 | – |

Source: US8952157B2, “Apoptosis-inducing agents for the treatment of cancer and immune and autoimmune diseases” (AbbVie Inc., priority 2008, dated 2015)
